# Tests used:
# MIAPaCa-2 (pancreas) = assay: In vitro cytotoxic activity assay (MTT), MIAPaCa-2; assay type: cell-based; conditions: Homo sapiens, MIA PaCa-2; MIAPaCa-2 cells, exposed for 96 hours; read-out: IC50, 50% inhibition of cell proliferation, MIAPaCa-2 (pancreas)
# Protocol: (§1) Compounds 1-12 were screened for their in vitro cytotoxic activity utilizing a 3-(4,5-dimethyl-thiazol-2-yl)-2,5-diphenyltetrazolium bromide (MTT) assay against selected cancer human cell lines consisting of PC3 (prostate), HCT116 (colon), A375 (melanoma), H1299 (lung), MIAPaCa-2 (pancreas), HL60 (leukemia), MCF7 (breast), MDA-MB-231 (breast) (T. Mosmann, J. Immunol. Meth., 1983, 65, 55-63). The cells were cultured at 37° C. in RMPI1640 medium supplemented with 10% fetal bovine serum, 50 IU/mL penicillin, and 50 μg/mL streptomycin in a 5% CO2 incubator. All cells were sub-cultured 3 times/week by trypsinisation. Viable cells were seeded and allowed to adhere for 12 h before a test drug was added in 96-well plates at an initial density of 1.0×10^5 cells/mL. Tumour cell lines were separately exposed to various concentrations of the tested compounds followed by incubation at a temperature of 37° C. during 96 h inside a medium of fresh RMPI 1640. Cells were subsequently incubated at 37° C. using MTT at 0.5 mg/mL during 4 h. After removal of supernatant, formazan crystals were dissolved in isopropanol and the optical density was measured at 570 nm. CX-4945 was used as a positive control.
# MCF7 (breast) = assay: In vitro cytotoxic activity assay (MTT), MCF7; assay type: cell-based; conditions: Homo sapiens; MCF7 cells, exposed for 96 hours; read-out: IC50, 50% inhibition of cell proliferation, MCF7 (breast)
# Protocol: as §1
# PC3 (prostate) = assay: In vitro cytotoxic activity assay (MTT), PC3; assay type: cell-based; conditions: Homo sapiens, PC-3; PC3 cells, exposed for 96 hours; read-out: IC50, 50% inhibition of cell proliferation, PC3 (prostate)
# Protocol: as §1
# HCT116 (colon) = assay: In vitro cytotoxic activity assay (MTT), HCT116; assay type: cell-based; conditions: Homo sapiens, HCT-116; HCT116 cells, exposed for 96 hours; read-out: IC50, 50% inhibition of cell proliferation, HCT116 (colon)
# Protocol: as §1
# H1299 (lung) = assay: In vitro cytotoxic activity assay (MTT), H1299; assay type: cell-based; conditions: Homo sapiens, NCI-H1299; H1299 cells, exposed for 96 hours; read-out: IC50, 50% inhibition of cell proliferation, H1299 (lung)
# Protocol: as §1
# [1] = biological target: T1, recombinant human CK2 (RRββ-holoenzyme) (Homo sapiens, UniProt P68400); assay: CK2 Kinase Assay (33P-ATP, substrate peptide RRRDDDSDDD); assay type: biochemical; conditions: final ATP concentration 15 μM, 10 min at 30° C.; read-out: protein kinase CK2 IC50
# T1 construct: purchased Millipore
# Protocol: CK2 Kinase Assay was conducted using the protocol as described in Pierre F. et al; J. Med. Chem. 2011, 54, 635-654. The tested compounds in aqueous solution were added at a volume of 10 μL to a reaction mixture comprising 10 μL of assay dilution buffer (ADB; 20 mM MOPS, pH 7.2, 25 mM (3-glycerol phosphate, 5 mM EGTA, 1 mM sodium orthovanadate, and 1 mM dithiothreitol), 10 μL of substrate peptide (RRRDDDSDDD, dissolved in ADB at a concentration of 1 mM), 10 μL of recombinant human CK2 (RRββ-holoenzyme, 25 ng dissolved in ADB; Millipore). Reactions were initiated by the addition of 10 μL of ATP solution (90% 75 mMMgCl2, 75 μM ATP (final ATP concentration: 15 μM) dissolved in ADB; 10% [γ-33P] ATP (stock 1 mCi/100 μL; 3000 Ci/mmol (Perkin-Elmer) and maintained for 10 min at 30° C. The reactions were quenched with 100 μL of 0.75% phosphoric acid and then transferred to and filtered through a phosphor cellulose filter plate (Millipore). After washing each well five times with 0.75% phosphoric acid, the plate was dried under vacuum for 5 min and, following the addition of 15 μL of scintillation fluid to each well, the residual radioactivity was measured using a Wallac […]. The IC50 values were derived from eight concentrations of test inhibitors.
# A375 (melanoma) = assay: In vitro cytotoxic activity assay (MTT), A375; assay type: cell-based; conditions: Homo sapiens, A-375; A375 cells, exposed for 96 hours; read-out: IC50, 50% inhibition of cell proliferation, A375 (melanoma)
# Protocol: as §1
# MDA-MB-231 (breast) = assay: In vitro cytotoxic activity assay (MTT), MDA-MB-231; assay type: cell-based; conditions: Homo sapiens; MDA-MB-231 cells, exposed for 96 hours; read-out: IC50, 50% inhibition of cell proliferation, MDA-MB-231 (breast)
# Protocol: as §1
# HL60 (leukemia) = assay: In vitro cytotoxic activity assay (MTT), HL60; assay type: cell-based; conditions: Homo sapiens, HL-60; HL60 cells, exposed for 96 hours; read-out: IC50, 50% inhibition of cell proliferation, HL60 (leukemia)
# Protocol: as §1
# T1 sequence (P68400 whole entry): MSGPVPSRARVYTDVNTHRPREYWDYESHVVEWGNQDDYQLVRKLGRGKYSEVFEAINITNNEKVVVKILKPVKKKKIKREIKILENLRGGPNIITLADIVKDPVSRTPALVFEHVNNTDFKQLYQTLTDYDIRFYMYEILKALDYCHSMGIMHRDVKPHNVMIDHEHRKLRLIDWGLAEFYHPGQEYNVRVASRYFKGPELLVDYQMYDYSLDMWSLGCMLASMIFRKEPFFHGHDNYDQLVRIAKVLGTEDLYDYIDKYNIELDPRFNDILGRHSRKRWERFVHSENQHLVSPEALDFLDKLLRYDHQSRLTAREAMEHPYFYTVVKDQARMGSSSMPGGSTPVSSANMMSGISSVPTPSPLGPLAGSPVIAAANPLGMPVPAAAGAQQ
# T1 sequence (P67870 whole entry partner): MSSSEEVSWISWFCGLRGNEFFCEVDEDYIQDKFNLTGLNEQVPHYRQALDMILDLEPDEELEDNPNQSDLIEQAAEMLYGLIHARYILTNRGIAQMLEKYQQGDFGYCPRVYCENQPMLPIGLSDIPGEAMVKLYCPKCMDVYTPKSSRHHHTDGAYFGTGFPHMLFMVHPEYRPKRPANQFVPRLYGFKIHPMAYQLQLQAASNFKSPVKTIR
compound,measurement,setting,value
"O=C(O)c1ccc2c(c1)nc(Nc1cccc(Cl)c1)c1cc(C(=O)O)[nH]c12 [Compound 1, 4-((3-chlorophenyl)amino)-1H-pyrrolo[3,2-c]quinoline-2,7-dicarboxylic acid]",IC50,MIAPaCa-2 (pancreas),1300 nM
same,IC50,MCF7 (breast),4400 nM
same,IC50,PC3 (prostate),1800 nM
same,IC50,HCT116 (colon),1900 nM
same,IC50,H1299 (lung),1600 nM
same,IC50,[1],37 nM
same,IC50,A375 (melanoma),2200 nM
same,IC50,MDA-MB-231 (breast),3500 nM
same,IC50,HL60 (leukemia),2900 nM

# From patent publication US11970496B1, “Pyrrolo[3,2-c]quinoline compounds as CK2 inhibitors” (KING FAISAL UNIVERSITY, priority 2023, dated 2024)
